Target: Kallikrein-1 (Homo sapiens, UniProt P06870)
Assay: Inhibition Assay
Description: Prior to the assay, human TK1 (R&D Systems) was activated by incubation with human trypsin (Calbiochem) in a 1:10,000 ratio for 15 min at 37° C. For assaying TK1 inhibitory activity, activated TK1 (31.25 nM or 1 U/mL) was incubated at 24° C. with 0.1 mM fluorogenic substrate H-Pro-Phe-Arg-AMC (11295 from Bachem) and various concentrations of the test compound in assay buffer. Measurements were performed in a kinetic interval every 2nd minute for 16 min using a Spectramax M5 (Molecular Devices) with the following settings of the wavelength excitation of 350 nm and wavelength emission of 450 nm.

Chain of Kallikrein-1 (P06870 whole entry): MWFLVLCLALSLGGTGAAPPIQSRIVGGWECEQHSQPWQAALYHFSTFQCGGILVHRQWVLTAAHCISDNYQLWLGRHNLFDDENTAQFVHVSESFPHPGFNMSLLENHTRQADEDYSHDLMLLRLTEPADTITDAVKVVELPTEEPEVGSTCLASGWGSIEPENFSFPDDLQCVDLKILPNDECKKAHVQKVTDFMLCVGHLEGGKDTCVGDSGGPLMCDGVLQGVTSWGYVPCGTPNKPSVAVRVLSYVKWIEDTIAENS

Row | IC50 [µM] | SMILES
1 | > 10 | Cc1nc(N2CC3C(C2)C3(F)F)ccc1Cn1cc(C(=O)N[C@@H]2CCc3c(C)n[nH]c32)c(C)n1 (stereo partly drawn) [US10695334, Example 18]
2 | > 10 | Cc1nc(N2CC3C(C2)C3(F)F)ncc1Cn1cc(C(=O)N[C@@H]2CCc3c2n[nH]c3C)cn1 (stereo partly drawn) [US10695334, Example 84]
3 | > 10 | Cc1nc(N2CC3(CC3)C2)ccc1Cn1cc(C(=O)N[C@@H]2CCc3c(C)n[nH]c32)cn1 [US10695334, Example 11]

— BindingDB's records for patent US10695334 (Boehringer Ingelheim International, 2020)
